The term IC50 denotes the concentration that gives 50% inhibition. As a reminder, the pIC50 is the IC50 on a negative log10 scale, so that one unit is a factor of ten.

Here are results for 20 molecules from US6403576B1, “Antifungal and antiparasitic compounds” (priority 1998, dated 2002).

Assay [1] concerns T.b. rhodesiense KETRI 243. As to the kind of experiment: Growth of bloodform trypanosomes in vitro, IC50 at 48 h. The assay is classed as cell-based, Trypanosoma brucei rhodesiense. Conditions: for IC50: Trypanosoma brucei, RHODESIENSE
From the text:
(§1) Trypanosome (a) IN VITRO drug screening method: 14 clinical isolates of Trypanosoma brucei rhodesiense (agent of East African Sleeping Sickness) many of which are refractory to standard trypanocides such as diamidines and melarsoprol (Bacchi et al., 1990, Antimicrob Agents Chemother 34, 1183-1188) are maintained as laboratory infections in rats and mice and as frozen stabilates of blood forms. Six of these isolates have been cultivated as blood forms in modified Iscove's medium (Hirumi & Hirumi, 1989, J Parasitol 75, 985-989). These cultivated blood forms are fully infective and serve as the initial screen for trypanocides based on a 24 well culture plate system and readings done on duplicate wells using a Coulter Counter (Bacchi and Yartlett, 1993, Acta Tropica 54, 225-236; Bacchi et al., 1996, Antimicrob Agents Chemother 4, 1448-1453). This screen has proven highly reproducible, needs minimal drug since the volume is limited (1 ml medium/well) and is complete after 48 h. It has proven to be highly predictive of in vivo activity (e.g., Brun et al., 1996, Antimicrob Agents Chemother 40, 1442-1447; Bacchi et al., 1996, supra).
(§2) The trypanosomes studied were Trypanosoma brucei brucei Lab 110 EATRO, which is pathogenic to cattle and other livestock, and several strains of Trypanosoma brucei rhodesiense, a parasite of humans, domestic and wild animals. Strains of T. b. rhodesiense included drug resistant clinical isolates KETRI 243 and 269 and KETRI 243 As-10-3, a highly melarsen- and diamidine-resistant clone of KETRI 243. The 19 extracts were tested in an in vitro screen using a semi-defined medium for growth of bloodstream trypomastigotes at 37° C. (Hirumi & Hirumi, 1989, supra) to determine IC50 values (Bacchi et al., 1996, supra).
(§3) Numerous similarities in leishmanial and trypanosomal lipid uptake and metabolism may explain common natural product drug susceptibility. Inhibitory of cholesterol synthesis, metabolism, and/or excretion described above in the detailed description were tested versus trypanosome isolates grown as bloodforms in HMI-18 medium containing 10% fetal bovine serum.

Assay [2] relates to T.b. brucei Lab 110 EATRO. The assay is described as above. The assay is classed as cell-based, Trypanosoma brucei brucei. The settings on record: for IC50: Trypanosoma brucei.
Description: as §1, with “1448-1453).” for “1448-1453). This screen has proven highly reproducible, needs minimal drug since the volume is limited (1 ml medium/well) and is complete after 48 h. It has proven to be highly predictive of in vivo activity (e.g., Brun et al., 1996, Antimicrob Agents Chemother 40, 1442-1447; Bacchi et al., 1996, supra).”
as §2
Inhibitory of cholesterol synthesis, metabolism, and/or excretion described above in the detailed description were tested versus trypanosome isolates grown as bloodforms in HMI-18 medium containing 10% fetal bovine serum.

Assay [3] deals with T.b. rhodesiense KETRI 269. Described as above. The format is cell-based, Trypanosoma brucei rhodesiense. Conditions: for IC50: Trypanosoma brucei, RHODESIENSE
Description: as §1, §2, §3

Assay [4] concerns T.b. rhodesiense KETRI 243 As-10-3. The description is as above. The settings on record: Trypanosoma brucei. The format is cell-based.
Description: as §1, §2, §3

Assay [5] deals with Squalene Oxidase (Homo sapiens, UniProt Q14534). Conditions: Abe et al, 1994; cited from earlier work.
The test system of assay [6] is macrophage cholesterol synthesis. Conditions: cited from earlier work.
The target of assay [7] is Squalene Synthetase. The settings on record: Abe et al, 1994; cited from earlier work.
Assay [8] concerns J-774 A.1 macrophages. Conditions: 10 uM; not from mevalonate; cited from earlier work.
Setting [9] is: Table 7, HMI-18 medium, 10% fetal bovine serum, 48 h.
Where [10] appears, read: Table 7, HMI-18 medium, 10% fetal bovine serum, 48 h, read-out: IC50 269.
Where [11] appears, read: Table 7, HMI-18 medium, 10% fetal bovine serum, 48 h, read-out: IC50 243.
[12] abbreviates: Table 7, HMI-18 medium, 10% fetal bovine serum, 48 h, read-out: IC50 Lab 110 EATRO.
The mark [13] stands for this setting: read-out: IC50 KETRI 243 As-103.

pIC50: −log10 of the molar value. ≈ marks a conversion by molar mass, not a printed value. Structures can show the parent of a compound that is named as a salt. Where two headings read alike, the source gives them in different places.

Sequence of Squalene Oxidase (Q14534 whole entry): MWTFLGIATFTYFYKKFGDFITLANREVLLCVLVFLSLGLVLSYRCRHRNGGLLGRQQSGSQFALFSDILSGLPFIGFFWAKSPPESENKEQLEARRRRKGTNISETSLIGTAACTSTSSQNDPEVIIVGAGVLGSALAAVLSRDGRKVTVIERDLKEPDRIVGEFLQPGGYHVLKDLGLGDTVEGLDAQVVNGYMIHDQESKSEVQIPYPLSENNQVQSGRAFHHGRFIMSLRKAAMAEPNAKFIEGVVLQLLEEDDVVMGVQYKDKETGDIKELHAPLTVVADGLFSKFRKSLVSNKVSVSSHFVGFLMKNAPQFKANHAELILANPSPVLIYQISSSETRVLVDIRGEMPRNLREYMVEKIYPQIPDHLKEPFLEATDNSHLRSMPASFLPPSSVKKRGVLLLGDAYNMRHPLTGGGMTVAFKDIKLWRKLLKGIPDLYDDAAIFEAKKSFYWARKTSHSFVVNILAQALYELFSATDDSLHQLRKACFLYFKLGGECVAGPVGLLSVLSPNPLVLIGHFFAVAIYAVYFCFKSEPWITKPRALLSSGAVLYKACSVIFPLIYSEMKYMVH

On to `CC(C)n1c(/C=C/C(O)CC(O)CC(=O)O)c(-c2ccc(F)cc2)c2ccccc21` (racemic) [Lescol, 6-Heptenoic acid, 3,5-dihydro-7-[3-(4-fluorophenyl)-1-(1-methylethyl)-1H-indol-2-yl-]-[R*,S*-(E)]-, (+−)-], for which the “IC50 243” value in assay [1] (setting [9]) is greater than 100 µg/mL. In addition, the “IC50 Lab 110 EATRO” value in assay [2] (setting [9]) is greater than 100 µg/mL.
`CC[C@H](C)C(=O)O[C@H]1C[C@@H](C)C=C2C=C[C@H](C)[C@H](CC[C@@H]3C[C@@H](O)CC(=O)O3)[C@H]21` (relative stereo) [Mevacor, Butanoic acid, 2-methyl-,1,2,3,7,8,8a-hexahydro-3,7-dimethyl-8-[2-(tetrahydro-4-hydroxy-6-oxo-2H-pyran-2-yl)ethyl]-1-naphthalenyl ester,[1S[1alpha(R*),3alpha,7beta,8beta(2S*,4S*), 8abeta]]-]: the “IC50 269” value in assay [3] (setting [9]) was 6.9 µg/mL (≈ 17.1 µM). The “IC50 243” value in assay [1] (setting [9]) came out at 4.4 µg/mL (≈ 10.9 µM). Further, the “IC50 Lab 110 EATRO” value in assay [2] was determined as 3.3 µg/mL (≈ 8.16 µM).
`CCC(C)(C)C(=O)O[C@H]1C[C@@H](C)C=C2C=C[C@H](C)[C@H](CC[C@@H]3C[C@@H](O)CC(=O)O3)[C@H]21` (relative stereo) [Zocor, [1S-[1-alpha(beta-S*,delta-S*), 2-alpha, 6-alpha,8-beta(R*),8a-alpha]]2,2-dimethylbutanoic acid 1,2,3,7,8,8a-hexahydro-3,7-dimethyl-8-[2-(tetrahydro-4-hydroxy-6-oxo-2H-pyran-2-yl)ethyl]-1-naphthalenyl ester]: the IC50 in assay [3] (setting [10]) came to 7 µg/mL (≈ 16.7 µM); in assay [1] (setting [11]), 12.9 µg/mL (≈ 30.8 µM); in assay [2] (setting [12]), 1.33 µg/mL (≈ 3.18 µM).
`CCOC(=O)C(C)(C)Oc1ccc(Cl)cc1` [Atromid-S, Propanoic acid, 2-(4-chlorophenoxy)-2-methyl-, ethyl ester]: the IC50 in assay [1] (setting [11]) and in assay [2] (setting [12]) was greater than 100 µg/mL throughout.
For the molecule `COCc1c(C(C)C)nc(C(C)C)c(/C=C/[C@@H](O)C[C@@H](O)CC(=O)O)c1-c1ccc(F)cc1` [Baycol, 7-[4-(4-fluorophenyl)-5-(methoxymethyl)-2,6-bis(1-methylethyl)-3-pyridinyl]-3,5-dihydroxy-, monosodium salt, [S-(R*,S*-(E))]]-], the IC50 in assay [4] (read-out: IC50 243 As 10-3) was determined as 52 µg/mL; in assay [1] (setting [11]), 7.7 µg/mL; in assay [2] (setting [12]), 13 µg/mL.
On to `CN(C/C=C/C#CC(C)(C)C)Cc1cccc2ccccc12` [Lamisil, 1-Naphthalenemethanamine, N-(6,6-dimethyl-2-hepten-4-ynyl)-N-methyl-, (E)-], for which the half-maximal inhibitory concentration (IC50) in assay [4] (read-out: IC50 243 As 10-3) was greater than 100 µg/mL; in assay [3] (setting [10]) it was 77 µg/mL (≈ 264 µM); in assay [1] (setting [11]), 86 µg/mL (≈ 295 µM); in assay [2] (setting [12]) it was 1.3 µg/mL (≈ 4.46 µM).
Turning to `Cc1ccc(C)c(OCCCC(C)(C)C(=O)O)c1` [Lopoid, Pentanoic acid, 5-(2,5-dimethylphenoxy)-2,2-dimethyl-], the concentration for half-maximal inhibition (IC50) in assay [1] (setting [11]) and in assay [2] (setting [12]) was greater than 100 µg/mL each time.
`Nc1nc(N)nc(Nc2ccc([As]=O)cc2)n1` (centres unmarked) [Melarsen Oxide]: the IC50 turned out to be 0.0072 µg/mL in assay [4] (setting [13]); 0.0066 µg/mL in assay [3] (48 h, read-out: IC50 KETRI 269); 0.0025 µg/mL in assay [1] (48 h, read-out: IC50 KETRI 243); 0.00077 µg/mL in assay [2] (48 h, read-out: IC50 EATRO 110).
Consider `CCN(C/C=C/C#CC(C)(C)C)Cc1cccc(OCc2cc(-c3ccsc3)cs2)c1` [NB-598], for which the pIC50 in assay [5] is 9.12.
For `CN(C/C=C/c1ccccc1)Cc1cccc2ccccc12` [Naftifine, 1-Naphthalenemethanamine, N-methyl-N-(3-phenyl-2-propenyl)-(E)], in assay [5], the negative-log IC50 (pIC50) is 6.03.
In the case of `N=C(N)c1ccc(OCCCCCOc2ccc(C(=N)N)cc2)cc1` [Pentamidine], the 50% inhibitory concentration (IC50) in assay [4] (setting [13]) amounted to 0.003 µg/mL (≈ 0.00881 µM); in assay [3] (Table 1, 48 hr cultures, HMI-18 medium, read-out: IC50 KETRI 269), 0.00192 µg/mL (≈ 0.00564 µM); in assay [1] (Table 1, 48 hr cultures, HMI-18 medium, read-out: IC50 KETRI 243), 0.00186 µg/mL (≈ 0.00546 µM); in assay [2] (Table 1, 48 hr cultures, HMI-18 medium, read-out: IC50 EATRO 110), 0.00048 µg/mL (≈ 0.00141 µM).
For the molecule `CC[C@H](C)C(=O)O[C@H]1C[C@H](O)C=C2C=C[C@H](C)[C@H](CC[C@@H](O)C[C@@H](O)CC(=O)O)[C@H]21` [Pravachol, [1S-(1-alpha(beta-S*,delta-S*),2-alpha, 6-alpha,8-beta(R*),8a-alpha]]-1,2,6,7,8,8a-hexahydro-2-methyl-8-(2-methyl-1-oxobutoxy)-beta,delta,6-trihydroxy-1-Naphthaleneheptanoic acid monosodium salt], the half-maximal inhibitory concentration (IC50) in assay [1] (setting [11]) is greater than 100 µg/mL. Moreover, the LDL increased in assay [6] (0.1 mg/ml pravastatin) is given as 119%. Also, in assay [6], the “concentration that increased cholesterol esterification” value is no more than 0.19 mg/mL and the “concentration that inhibited cholesterol esterification” value is greater than 0.19 mg/mL. In addition, in assay [6] (humans, 40 mg/day for 8 weeks), the “increased LDL degradation” value is listed as 57% and the inhibited cholesterol synthesis was 55-62%. Moreover, the IC50 in assay [2] (setting [12]) was greater than 100 µg/mL.
`CC(=O)OC1OC(OC2C(OC3CC[C@@]4(C)C(=CCC5C4CC[C@@]4(C)C5CC5OC6(CC[C@@H](C)CO6)[C@@H](C)[C@@]54O)C3)OC(CO)C(O)C2OC2OC(C)C(O)C(O)C2O)C(O)C(O)C1O` (some centres unmarked) [SU-1461, Mannispirostan A]: in assay [2] (Table 2, secondary extracts, * extracts precipitated in medium after 24 h, read-out: IC50 T.b. brucei 110), the IC50 turned out to be 6.4 µg/mL (≈ 6.89 µM).
In the case of `C=C(CC[C@]12O[C@H](C(=O)O)[C@@](O)(C(=O)O)[C@](C(=O)O)(O1)[C@H](OC(=O)/C=C/[C@@H](C)C[C@@H](C)CC)[C@H]2O)[C@@H](OC(C)=O)[C@H](C)Cc1ccccc1` [Squalestatin 1], in assay [7], the pIC50 was 7.82.
On to `C=C(CC[C@]12O[C@H](C(=O)O)[C@@](O)(C(=O)O)[C@](C(=O)O)(O1)[C@H](OC(=O)/C=C/[C@@H](C)C[C@@H](C)CC)[C@H]2O)[C@@H](O)[C@H](C)Cc1ccccc1` [Squalestatin 2], for which the pIC50 in assay [7] is 7.82.
As for `C=C(CC[C@]12O[C@H](C(=O)O)[C@@](O)(C(=O)O)[C@](C(=O)O)(O1)[C@H](O)[C@H]2O)[C@@H](OC(C)=O)[C@H](C)Cc1ccccc1` [Squalestatin 3], the pIC50 in assay [7] was 8.23.
With `C=C(CC[C@]12O[C@H](C(=O)O)[C@@](O)(C(=O)O)[C@](C(=O)O)(O1)[C@H](OC(=O)/C=C/[C@@H](C)C[C@@H](C)CC)[C@H]2O)[C@@H](OC(C)=O)[C@H](C)Cc1ccccc1` [Zaragozic acid A], the pIC50 in assay [7] is 10.11.
Turning to `C/C=C/CCCC/C=C/CCCCC(=O)O[C@@H]1[C@@H](O)[C@@]2(CCC(C)C(O)C(C)C/C=C/c3ccccc3)O[C@H](C(=O)O)[C@@](O)(C(=O)O)[C@]1(C(=O)O)O2` (some centres unmarked) [Zaragozic acid B], in assay [7], the pIC50 was 10.54.
For the molecule `CC(=O)O[C@H](CCC[C@]12O[C@H](C(=O)O)[C@@](O)(C(=O)O)[C@](C(=O)O)(O1)[C@H](OC(=O)CC/C=C/[C@H](C)CCCc1ccccc1)[C@H]2O)[C@H](C)Cc1ccccc1` [Zaragozic acid C], the pIC50 in assay [7] was 10.35.
On to `CC1=C(/C=C/C(C)=C/C=C/C(C)=C/C=C/C=C(C)/C=C/C=C(C)/C=C/C2=C(C)CCCC2(C)C)C(C)(C)CCC1` [beta-carotene], for which the “cholesterol synthesis inhibited from acetate” value in assay [8] is 63%.
